Source: US5527703A (Merck & Co., Inc., priority 1994, dated 1996)

Key:
[1] = target: T1, GluClα (Caenorhabditis elegans, UniProt G5EBR3); assay: Glutamate current after IVMPO4 current activation, GluClα injected oocytes; format: cell-based, C. elegans; design: the full-length open reading frame of the GluCl cDNA encoding the GluClα (52,550 kDa) and GluClβ (49,900kDa) subunits; expressed in transfected cells; host or cells: Xenopus laevis oocytes injected with in vitro RNA
T1 sequence (G5EBR3 21-461): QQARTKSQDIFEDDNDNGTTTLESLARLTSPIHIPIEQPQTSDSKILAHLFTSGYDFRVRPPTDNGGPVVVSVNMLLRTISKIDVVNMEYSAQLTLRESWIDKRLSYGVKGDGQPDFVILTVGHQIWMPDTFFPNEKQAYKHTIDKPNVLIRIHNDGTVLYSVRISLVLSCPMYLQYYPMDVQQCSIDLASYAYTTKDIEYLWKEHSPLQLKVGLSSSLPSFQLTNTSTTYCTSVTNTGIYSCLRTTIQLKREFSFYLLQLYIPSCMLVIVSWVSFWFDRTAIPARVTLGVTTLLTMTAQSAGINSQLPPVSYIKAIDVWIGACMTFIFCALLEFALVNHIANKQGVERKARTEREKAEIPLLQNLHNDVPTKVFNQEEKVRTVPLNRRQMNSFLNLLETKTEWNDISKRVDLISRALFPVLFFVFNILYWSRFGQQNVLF
Procedure: (§1) Xenopus laevis oocytes were prepared and injected using standard methods previously described and known in the art [Arena, J. P., Liu. K. K., Paress, P. S. & Cully. D. F. Mol. Pharmacol. 40, 368-374 (1991 ); Arena, J. P., Liu, K. K., Paress, P. S., Schaeffer, J. M. & Cully, D. F. Mol. Brain Res. 15, 339-348 (1992)]. Adult female Xenopus laevis were anesthetized with 0.17% tricaine methanesulfonate and the ovaries were surgically removed and placed in a dish consisting of (mM): NaCl 1 82.5, KCl 2. MgCl2 1, CaCl2 1.8, HEPES 5 adjusted to pH 7.5 with NaOH (OR-2). Ovarian lobes were broken open, rinsed several times, and gently shaken in OR-2 containing 0.2% collagenase (Sigma, Type 1A) for 2-5 hours. […]
(§2) Recordings were made at room temperature 2-10 days after injection. […] Data were acquired and analyzed using PCLAMP with a TL-1 interface (Axon Instruments, Foster City, Calif.). Membrane current at a holding potential of -80 mV was recorded. The amplitude of drug-sensitive current was determined by subtracting the holding current at -80 mV from the peak current obtained in the presence of drug. […] Current/voltage relationships (I/V) and reversal potentials (Erev) were determined using a 1-3 sec voltage ramp over the voltage range of -110 to +80 mV. […]

[2] = target: T2, GluClβ (Caenorhabditis elegans, UniProt Q17328); assay: Modulation of glutamate-sensitive current by IVMPO4, GluClβ injected oocytes; format: cell-based, C. elegans
T2 construct: the full-length open reading frame of the GluCl cDNA encoding the GluClα (52,550 kDa) and GluClβ (49,900kDa) subunits; expressed in transfected cells; host or cells: Xenopus laevis oocytes injected with in vitro RNA
T2 sequence (Q17328 23-434): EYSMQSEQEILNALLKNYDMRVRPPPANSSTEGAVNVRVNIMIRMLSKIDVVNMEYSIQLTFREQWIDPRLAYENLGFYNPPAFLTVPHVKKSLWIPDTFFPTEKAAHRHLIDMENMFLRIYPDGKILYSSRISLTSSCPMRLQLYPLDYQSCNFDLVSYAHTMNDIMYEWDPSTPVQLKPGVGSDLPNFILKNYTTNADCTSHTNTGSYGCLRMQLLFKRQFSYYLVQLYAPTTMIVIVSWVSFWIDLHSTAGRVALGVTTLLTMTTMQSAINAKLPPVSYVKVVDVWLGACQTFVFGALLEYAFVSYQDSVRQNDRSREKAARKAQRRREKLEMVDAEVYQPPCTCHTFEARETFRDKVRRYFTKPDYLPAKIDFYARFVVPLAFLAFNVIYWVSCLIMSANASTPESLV
Procedure: as §1, §2

N[C@@H](CCC(=O)O)C(=O)O [glutamate]
lowest glutamate concentrations at which glutamate-sensitive current could be observed ([1]; following IVMPO4 current activation): 10 µM | increase in current with glutamate ([1]; prior activation of current with IVMPO4): 20±4%

ivermectin-4-O-phosphate [IVMPO4]
reduction of glutamate-sensitive current ([2]; following IVMPO4 1 μM): 88±4% | potentiation of glutamate response ([2]; homomeric GluClβ channels): not potentiated
